Laboratory results: patent US11370798B2 (Vertex Pharmaceuticals Incorporated, priority 2012, dated 2022)

System: HCT116 colorectal cancer cells
Experiment: Cisplatin sensitization assay (96 h cell viability MTS);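 note: Test-compound concentration that lowers the Cisplatin IC50 by a set fold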
Assay type: cell-based
Conditions: compound and Cisplatin added simultaneously, Cisplatin sensitization value
In short: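 Compound and cisplatin added together as a full matrix of 2-fold serial dilutions from a top final concentration of 10 μM; cells incubated 96 h at 37° C, 5% CO2. Viability then read by MTS after 1 h further incubation; sensitization value reported in μM bins.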

Row | Structure (SMILES) | Cisplatin Sensitization Assay
1 | CN1CC2(CCN(c3ccncc3NC(=O)c3c(N)nn4cc(F)cnc34)CC2)CC1=O [I-N-236, 2-amino-6-fluoro-N-(4-(2-methyl-3-oxo-2,8-diazaspiro[4.5]decan-8-yl)pyridin-3-yl)pyrazolo[1,5-a]pyrimidine-3-carboxamide] | +++ (Cisplatin sensitization value of <0.02 μM)
2 | Cc1cncc(NC(=O)c2c(N)nn3cc(F)cnc23)c1-n1nccc1C [I-N-237] | + (Cisplatin sensitization value>0.2 μM but <5 μM)
3 | Nc1nn2cc(F)cnc2c1C(=O)Nc1cnccc1N1CCN2C(=O)OCC2C1 (centres unmarked) [I-N-238, 2-amino-6-fluoro-N-(4-(3-oxotetrahydro-1H-oxazolo[3,4-a]pyrazin-7(3H)-yl)pyridin-3-yl)pyrazolo[1,5-a]pyrimidine-3-carboxamide] | ++ (Cisplatin sensitization value>0.02 μM but <0.2 μM)
4 | Nc1nn2cc(F)cnc2c1C(=O)Nc1cncc(F)c1N1CCC2(CC1)COC2 [I-N-239, 2-amino-6-fluoro-N-(5-fluoro-4-(2-oxa-7-azaspiro[3.5]nonan-7-yl)pyridin-3-yl)pyrazolo[1,5-a]pyrimidine-3-carboxamide] | +++ (Cisplatin sensitization value of <0.02 μM)
5 | CN1CCN2CCN(c3c(F)cncc3NC(=O)c3c(N)nn4cc(F)cnc34)CC2C1=O (centres unmarked) [I-N-240, 2-amino-6-fluoro-N-(5-fluoro-4-(8-methyl-9-oxohexahydro-1H-pyrazino[1,2-a]pyrazin-2(6H)-yl)pyridin-3-yl)pyrazolo[1,5-a]pyrimidine-3-carboxamide] | ++ (Cisplatin sensitization value>0.02 μM but <0.2 μM)
6 | Nc1nn2cc(F)cnc2c1C(=O)Nc1cnccc1N1CCC(c2ncon2)CC1 [I-N-241, N-(4-(4-(1,2,4-oxadiazol-3-yl)piperidin-1-yl)pyridin-3-yl)-2-amino-6-fluoropyrazolo[1,5-a]pyrimidine-3-carboxamide] | +++ (Cisplatin sensitization value of <0.02 μM)
7 | Cc1ncnn1-c1c(F)cncc1NC(=O)c1c(N)nn2cc(F)cnc12 [I-N-242, 2-amino-6-fluoro-N-(5-fluoro-4-(5-methyl-1H-1,2,4-triazol-1-yl)pyridin-3-yl)pyrazolo[1,5-a]pyrimidine-3-carboxamide] | + (Cisplatin sensitization value>0.2 μM but <5 μM)
8 | CC1(S(C)(=O)=O)CCN(c2ccncc2NC(=O)c2c(N)nn3cc(F)cnc23)CC1 [I-N-243, 2-amino-6-fluoro-N-(4-(4-methyl-4-(methylsulfonyl)piperidin-1-yl)pyridin-3-yl)pyrazolo[1,5-a]pyrimidine-3-carboxamide] | +++ (Cisplatin sensitization value of <0.02 μM)
9 | Nc1nn2cc(F)cnc2c1C(=O)Nc1cnccc1N1CCN2C(=O)CCCC2C1 (centres unmarked) [I-N-244, 2-amino-6-fluoro-N-(4-(6-oxohexahydro-1H-pyrido[1,2-a]pyrazin-2(6H)-yl)pyridin-3-yl)pyrazolo[1,5-a]pyrimidine-3-carboxamide] | +++ (Cisplatin sensitization value of <0.02 μM)
10 | CC(C)N1CCN2CCN(c3ccncc3NC(=O)c3c(N)nn4cc(F)cnc34)CC2C1=O (centres unmarked) [I-N-245, 2-amino-6-fluoro-N-(4-(8-isopropyl-9-oxohexahydro-1H-pyrazino[1,2-a]pyrazin-2(6H)-yl)pyridin-3-yl)pyrazolo[1,5-a]pyrimidine-3-carboxamide] | ++ (Cisplatin sensitization value>0.02 μM but <0.2 μM)
11 | Nc1nn2cc(F)cnc2c1C(=O)Nc1cncc(F)c1N1CCCC1 [I-N-246, 2-amino-6-fluoro-N-(5-fluoro-4-(pyrrolidin-1-yl)pyridin-3-yl)pyrazolo[1,5-a]pyrimidine-3-carboxamide] | ++ (Cisplatin sensitization value>0.02 μM but <0.2 μM)
12 | Nc1nn2cc(F)cnc2c1C(=O)Nc1cnccc1N1CCN2[C@@H](CCS2(=O)=O)C1 [I-N-247, (S)-2-amino-N-(4-(1,1-dioxidotetrahydro-2H-isothiazolo[2,3-a]pyrazin-5(3H)-yl)pyridin-3-yl)-6-fluoropyrazolo[1,5-a]pyrimidine-3-carboxamide] | +++ (Cisplatin sensitization value of <0.02 μM)
13 | Nc1nn2cc(F)cnc2c1C(=O)Nc1cncc(F)c1N1CCN2C(=O)OC[C@@H]2C1 [I-N-248, (S)-2-amino-6-fluoro-N-(5-fluoro-4-(3-oxotetrahydro-1H-oxazolo[3,4-a]pyrazin-7(3H)-yl)pyridin-3-yl)pyrazolo[1,5-a]pyrimidine-3-carboxamide] | ++ (Cisplatin sensitization value>0.02 μM but <0.2 μM)
14 | Nc1nn2cc(F)cnc2c1C(=O)Nc1cnccc1N1CCN(C(=O)C2COC2)CC1 [I-N-249] | +++ (Cisplatin sensitization value of <0.02 μM)
15 | Nc1nn2cc(F)cnc2c1C(=O)Nc1cncc(F)c1N1CCS(=O)(=O)CC1 [I-N-250, 2-amino-N-(4-(1,1-dioxidothiomorpholino)-5-fluoropyridin-3-yl)-6-fluoropyrazolo[1,5-a]pyrimidine-3-carboxamide] | ++ (Cisplatin sensitization value>0.02 μM but <0.2 μM)
16 | CC(=O)N1CC2(CCN(c3ccncc3NC(=O)c3c(N)nn4cc(F)cnc34)CC2)C1 [I-N-251, N-(4-(2-acetyl-2,7-diazaspiro[3.5]nonan-7-yl)pyridin-3-yl)-2-amino-6-fluoropyrazolo[1,5-a]pyrimidine-3-carboxamide] | +++ (Cisplatin sensitization value of <0.02 μM)
17 | CC1(C)CN(c2ccncc2NC(=O)c2c(N)nn3cc(F)cnc23)CCS1(=O)=O [I-N-252, 2-amino-N-(4-(2,2-dimethyl-1,1-dioxidothiomorpholino)pyridin-3-yl)-6-fluoropyrazolo[1,5-a]pyrimidine-3-carboxamide] | +++ (Cisplatin sensitization value of <0.02 μM)
18 | Nc1nn2cc(F)cnc2c1C(=O)Nc1cnccc1N1CCCC2(COC2)C1 [I-N-253, N-(4-(2-oxa-6-azaspiro[3.5]nonan-6-yl)pyridin-3-yl)-2-amino-6-fluoropyrazolo[1,5-a]pyrimidine-3-carboxamide] | +++ (Cisplatin sensitization value of <0.02 μM)
19 | Nc1nn2cc(F)cnc2c1C(=O)Nc1cnccc1N1CCC2(CCNC2)CC1 [I-N-255, N-(4-(2,8-diazaspiro[4.5]decan-8-yl)pyridin-3-yl)-2-amino-6-fluoropyrazolo[1,5-a]pyrimidine-3-carboxamide] | ++ (Cisplatin sensitization value>0.02 μM but <0.2 μM)
20 | Cc1nnc(N2CCN(c3ccncc3NC(=O)c3c(N)nn4cc(F)cnc34)CC2)o1 [I-N-256, 2-amino-6-fluoro-N-(4-(4-(5-methyl-1,3,4-oxadiazol-2-yl)piperazin-1-yl)pyridin-3-yl)pyrazolo[1,5-a]pyrimidine-3-carboxamide] | ++ (Cisplatin sensitization value>0.02 μM but <0.2 μM)
21 | CC(=O)N1CCC2(CCN(c3ccncc3NC(=O)c3c(N)nn4cc(F)cnc34)CC2)C1 [I-N-257, N-(4-(2-acetyl-2,8-diazaspiro[4.5]decan-8-yl)pyridin-3-yl)-2-amino-6-fluoropyrazolo[1,5-a]pyrimidine-3-carboxamide] | +++ (Cisplatin sensitization value of <0.02 μM)
22 | Nc1nn2cc(F)cnc2c1C(=O)Nc1cnccc1N1CCN2C(=O)CC[C@@H]2C1 [I-N-258, (R)-2-amino-6-fluoro-N-(4-(6-oxohexahydropyrrolo[1,2-a]pyrazin-2(1H)-yl)pyridin-3-yl)pyrazolo[1,5-a]pyrimidine-3-carboxamide] | ++ (Cisplatin sensitization value>0.02 μM but <0.2 μM)
23 | Cn1ccc2cncc(NC(=O)c3c(N)nn4cc(F)cnc34)c21 [I-N-259, 2-amino-6-fluoro-N-(1-methyl-1H-pyrrolo[3,2-c]pyridin-7-yl)pyrazolo[1,5-a]pyrimidine-3-carboxamide] | + (Cisplatin sensitization value>0.2 μM but <5 μM)
24 | Cc1nonc1N1CCN(c2ccncc2NC(=O)c2c(N)nn3cc(F)cnc23)CC1 [I-N-260, 2-amino-6-fluoro-N-(4-(4-(4-methyl-1,2,5-oxadiazol-3-yl)piperazin-1-yl)pyridin-3-yl)pyrazolo[1,5-a]pyrimidine-3-carboxamide] | +++ (Cisplatin sensitization value of <0.02 μM)
25 | COC(=O)N1CCN(c2c(F)cncc2NC(=O)c2c(N)nn3cc(F)cnc23)CC1 [I-N-261, methyl-4-(3-(2-amino-6-fluoropyrazolo[1,5-a]pyrimidine-3-carboxamido)-5-fluoropyridin-4-yl)piperazine-1-carboxylate] | +++ (Cisplatin sensitization value of <0.02 μM)
26 | CC(=O)N1CCCC12CCN(c1ccncc1NC(=O)c1c(N)nn3cc(F)cnc13)CC2 [I-N-262, N-(4-(1-acetyl-1,8-diazaspiro[4.5]decan-8-yl)pyridin-3-yl)-2-amino-6-fluoropyrazolo[1,5-a]pyrimidine-3-carboxamide] | +++ (Cisplatin sensitization value of <0.02 μM)
27 | Cc1nncn1-c1ccncc1NC(=O)c1c(N)nn2cc(F)cnc12 [I-N-263, 2-amino-6-fluoro-N-(4-(3-methyl-4H-1,2,4-triazol-4-yl)pyridin-3-yl)pyrazolo[1,5-a]pyrimidine-3-carboxamide] | + (Cisplatin sensitization value>0.2 μM but <5 μM)
28 | Nc1nn2cc(F)cnc2c1C(=O)Nc1cnccc1N1CCCCCC1 [I-N-264, 2-amino-N-(4-(azepan-1-yl)pyridin-3-yl)-6-fluoropyrazolo[1,5-a]pyrimidine-3-carboxamide] | + (Cisplatin sensitization value>0.2 μM but <5 μM)
29 | Cc1nnc(C2CCN(c3ccncc3NC(=O)c3c(N)nn4cc(F)cnc34)CC2)o1 [I-N-265, 2-amino-6-fluoro-N-(4-(4-(5-methyl-1,3,4-oxadiazol-2-yl)piperidin-1-yl)pyridin-3-yl)pyrazolo[1,5-a]pyrimidine-3-carboxamide] | ++ (Cisplatin sensitization value>0.02 μM but <0.2 μM)
